For this assay, the target named is T1, STAT6 (Homo sapiens, UniProt P42226).
T1 construct: endogenous in cells; host or cells: MOLM-16, KU-812, SKNO1, MB231, L1236
T1 sequence (P42226 1-847): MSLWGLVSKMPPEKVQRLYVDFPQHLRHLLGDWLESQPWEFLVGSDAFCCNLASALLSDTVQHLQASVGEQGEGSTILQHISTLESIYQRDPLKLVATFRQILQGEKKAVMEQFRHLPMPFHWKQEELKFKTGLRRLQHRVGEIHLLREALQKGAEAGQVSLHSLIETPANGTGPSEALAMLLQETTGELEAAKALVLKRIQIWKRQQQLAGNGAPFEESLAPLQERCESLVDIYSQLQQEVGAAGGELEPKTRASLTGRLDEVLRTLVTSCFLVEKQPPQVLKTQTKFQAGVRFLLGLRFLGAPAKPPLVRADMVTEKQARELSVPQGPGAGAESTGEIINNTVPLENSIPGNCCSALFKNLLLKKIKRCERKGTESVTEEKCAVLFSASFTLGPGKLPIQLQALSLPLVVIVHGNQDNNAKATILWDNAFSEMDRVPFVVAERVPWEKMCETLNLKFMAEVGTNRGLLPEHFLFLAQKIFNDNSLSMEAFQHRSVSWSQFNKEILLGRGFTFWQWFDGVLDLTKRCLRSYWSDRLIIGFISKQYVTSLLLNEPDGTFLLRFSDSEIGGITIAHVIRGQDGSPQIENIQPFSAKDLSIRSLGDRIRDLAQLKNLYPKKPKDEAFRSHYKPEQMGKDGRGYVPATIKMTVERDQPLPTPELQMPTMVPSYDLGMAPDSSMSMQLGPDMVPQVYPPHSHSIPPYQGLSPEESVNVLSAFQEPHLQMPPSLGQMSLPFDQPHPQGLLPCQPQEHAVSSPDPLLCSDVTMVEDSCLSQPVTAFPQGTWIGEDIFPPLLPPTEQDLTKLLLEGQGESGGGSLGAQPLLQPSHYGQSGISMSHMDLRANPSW
Kind of assay: Immunoblotting (Western blot) analysis of STAT6 degradation efficiency of degraders in treated cells. The assay is classed as cell-based. The procedure: Evaluation of the degradation efficiency of degraders may be accomplished by immunoblotting analysis. The representative general protocol is the following:
Cells are maintained in the appropriate culture medium with 10% FBS at 37° C. and an atmosphere of 5% CO2. Cell lines are used within three months of thawing fresh vials. Cells are lysed 1× Cell Lysis Buffer (Cell Signaling Technology, #9803), resolved by SDS-PAGE NuPAGE gel (Thermo Fisher Scientific), and transferred to a PVDF membrane (Millipore). Membranes are blocked using Odyssey TBS Blocker Buffer (LI-COR). IRDye 680RD and 800CW Dye-labeled secondary antibodies (LI-COR) are used. The washed membranes are scanned using Odyssey CLx imager (LI-COR). The intensity of Western blot signaling is quantitated using the Odyssey software. Primary antibodies used are: STAT5 Rabbit mAb (Cell Signaling Technology, #94205), STAT6 Rabbit mAb (Cell Signaling Technology, #5397) and GAPDH mouse monoclonal antibody (Santa Cruz Biotechnology, sc-47724).
To evaluate the degradation efficiency of degraders, immunoblotting analysis was performed. The general protocol is the following.
About 1 million cells for each data point were treated with compounds at indicated concentrations and durations. Untreated and treated cells in cell culture medium were transferred into tubes, followed by centrifugation at 3,000 rpm and 4° C. for 6 min Supernatants were removed from tubes and radioimmunoprecipitation assay (RIPA) lysis buffer supplemented with 1% protease inhibitor cocktail (Fisher Scientific cat. PI87786) and phosphatase inhibitor (Roche cat. 04906837001) were added to tubes containing the remaining cell pellets. The tubes were then left on ice for 30 min and placed in a −80° C. freezer. Subsequently they were thawed in 37° C. water, then centrifuged at 14,000 rpm for 15 min and the cell lysates transferred to new tubes. The concentration of total proteins in each tube was calculated using the Pierce BCA protein Assay kit (cat. 23225). Based on the calculated protein concentration, cell lysates containing approximately the same amount of proteins were transferred to new tubes, then distilled water and 4× Protein Sample Loading Buffer for Western Blots (LI-COR cat. 928-40004) supplemented with 20% of mercaptoethanol (Sigma Aldrich cat. M6250) were added on ice. The cell lysates were then reduced and denatured at 95° C. for 5 min. From the tubes containing cell lysates an equal amount of protein samples (20-40 μg) was loaded into precast 8%, 10%, 4%-12%, or 4%-20% Tris-glycine gels (Novex) filled with Tris-glycine SDS running buffer. After the proteins were resolved, they were transferred onto Immobile-FL PVDF Membrane (Millipore Sigma cat. IPFL00010), using Mini Trans-Blot Electrophoretic Transfer Cell (Bio-Rad 1703930). The membranes were blocked with Intercept Blocking Buffer (LI-COR cat. 927-70001) in LI-COR Western Blot boxes for 1 h at rt. The membranes were washed with 1× Tris-buffered saline-Tween-20 (TBST, 1× solution was made from 20×TBST solution, ThermoFisher Scientific cat. 28360) for 5 min 4 times. The membranes were incubated overnight at 4° C. in Intercept Blocking Buffer supplemented with primary antibodies (normally antibody:buffer 1:1000) and Tween-20. The membranes were washed with TBST for 5 min 4 times and were incubated with Intercept Blocking Buffer supplemented with IRDye 800CE Secondary Antibodies, IRDye 680RD Secondary Antibodies (LI-COR biosciences), Tween-20, and 10% SDS solution, for 1 h at rt. The membranes were then washed with TBST for 5 min 4 times and rinsed with deionized water before drying and scanning with Odyssey Dlx Amazing System (LI-COR). The immunoblots were finally quantified by the software.

Setting [1] is: L1236 cells, read-out: DC50 S6 L1236.
The mark [2] stands for this setting: MOLM-16 cells, class symbols, read-out: DC50 S6 MOLM-16.

SMILES strings stand for the structures. Where two headings read alike, the source gives them in different places.

For five compounds, DC50 results are on record in patent US20230295197A1, “STAT5 and STAT6 Degraders and Uses Thereof” (REGENTS OF THE UNIVERSITY OF MICHICAN, priority 2022, published 2023).

Turning to `Cc1ncsc1-c1ccc([C@H](C)NC(=O)[C@@H]2C[C@@H](O)CN2C(=O)[C@@H](NC(=O)CCCCCCCCCNC(=O)CO[C@H]2C[C@@H](C(=O)N3CCO[C@H](c4ccccc4)C3)N(C(=O)[C@@H](NC(=O)c3cc4cc(C(F)(F)P(=O)(O)O)ccc4s3)C(C)(C)C)C2)C(C)(C)C)cc1` [Compound 433, (difluoro(2-(((S)-1-((2S,4S)-4-(2-((10-(((S)-1-((2S,4R)-4-hydroxy-2-(((S)-1-(4-(4-methylthiazol-5-yl)phenyl)ethyl)carbamoyl)pyrrolidin-1-yl)-3,3-dimethyl-1-oxobutan-2-yl)amino)-10-oxodecyl)amino)-2-oxoethoxy)-2-((R)-2-phenylmorpholine-4-carbonyl)pyrrolidin-1-yl)-3,3-dimethyl-1-oxobutan-2-yl)carbamoyl)benzo[b]thiophen-5-yl)methyl)phosphonic acid], the DC50 runs as follows: under setting [1], greater than 10 µM; under setting [2], greater than 10 µM.

As for `Cc1ncsc1-c1ccc([C@H](C)NC(=O)[C@@H]2C[C@@H](O)CN2C(=O)[C@@H](NC(=O)CCCNC(=O)CC(=O)N2CCN(C(=O)[C@@H](NC(=O)c3cc4cc(C(F)(F)P(=O)(O)O)ccc4s3)C(C)(C)C)[C@H](C(=O)N3CCC[C@H](c4ccccc4)C3)C2)C(C)(C)C)cc1` [Compound 454, (difluoro(2-(((S)-1-((S)-4-(3-((4-(((S)-1-((2S,4R)-4-hydroxy-2-(((S)-1-(4-(4-methylthiazol-5-yl)phenyl)ethyl)carbamoyl)pyrrolidin-1-yl)-3,3-dimethyl-1-oxobutan-2-yl)amino)-4-oxobutyl)amino)-3-oxopropanoyl)-2-((R)-3-phenylpiperidine-1-carbonyl)piperazin-1-yl)-3,3-dimethyl-1-oxobutan-2-yl)carbamoyl)benzo[b]thiophen-5-yl)methyl)phosphonic acid], the DC50 is greater than 10 µM under setting [1] and greater than 10 µM under setting [2].

For the compound `Cc1ncsc1-c1ccc([C@H](C)NC(=O)[C@@H]2C[C@@H](O)CN2C(=O)[C@@H](NC(=O)CCNC(=O)COc2ccc3c(c2)CN(C(=O)[C@@H](NC(=O)c2cc4cc(C(F)(F)P(=O)(O)O)ccc4s2)C(C)(C)C)[C@H](C(=O)N2CCC[C@H](c4ccccc4)C2)C3)C(C)(C)C)cc1` [Compound 471, (difluoro(2-(((S)-1-((S)-7-(2-((3-(((S)-1-((2S,4R)-4-hydroxy-2-(((S)-1-(4-(4-methylthiazol-5-yl)phenyl)ethyl)carbamoyl)pyrrolidin-1-yl)-3,3-dimethyl-1-oxobutan-2-yl)amino)-3-oxopropyl)amino)-2-oxoethoxy)-3-((R)-3-phenylpiperidine-1-carbonyl)-3,4-dihydroisoquinolin-2(1H)-yl)-3,3-dimethyl-1-oxobutan-2-yl)carbamoyl)benzo[b]thiophen-5-yl)methyl)phosphonic acid], the DC50 under setting [2] is greater than 10 µM.

Turning to `CC(C)(C)[C@H](NC(=O)c1cc2cc(C(F)(F)P(=O)(O)O)ccc2s1)C(=O)N1C[C@H](OCCCCCC#Cc2cccc3c2CN(C2CCC(=O)NC2=O)C3=O)C[C@H]1C(=O)N1CCO[C@H](c2ccccc2)C1` (stereo partly drawn) [Compound 600, ((2-(((2S)-1-((2S,4R)-4-((7-(2-(2,6-dioxopiperidin-3-yl)-1-oxoisoindolin-4-yl)hept-6-yn-1-yl)oxy)-2-((R)-2-phenylmorpholine-4-carbonyl)pyrrolidin-1-yl)-3,3-dimethyl-1-oxobutan-2-yl)carbamoyl)benzo[b]thiophen-5-yl)difluoromethyl)phosphonic acid], the DC50 (MOLM-16 cells, numeric bound, read-out: DC50 S6 MOLM-16) is greater than 0.3 µM.

Take `CC(C)(C)[C@H](NC(=O)c1cc2cc(C(F)(F)P(=O)(O)O)ccc2s1)C(=O)N1C[C@@H](OCC(=O)NCCCCCCCCC#Cc2cccc3c2C(=O)N(C2CCC(=O)NC2=O)C3=O)C[C@H]1C(=O)N1CCO[C@H](c2ccccc2)C1` (stereo partly drawn) [Compound 489, ((2-(((2S)-1-((2S,4S)-4-(2-((10-(2-(2,6-dioxopiperidin-3-yl)-1,3-dioxoisoindolin-4-yl)dec-9-yn-1-yl)amino)-2-oxoethoxy)-2-((R)-2-phenylmorpholine-4-carbonyl)pyrrolidin-1-yl)-3,3-dimethyl-1-oxobutan-2-yl)carbamoyl)benzo[b]thiophen-5-yl)difluoromethyl)phosphonic acid]: the DC50 under setting [2] was greater than 10 µM.

Broadly, the DC50 is the concentration giving 50% degradation.
